The text below walks through data of ChEMBL document CHEMBL4706744, “Discovery of Selective Transforming Growth Factor β Type II Receptor Inhibitors as Antifibrosis Agents” (ACS Med Chem Lett, 2021).

Series [1] can be described thus: Metabolic stability in human liver microsomes assessed as compound remaining at 1 uM incubated for 60 mins. The note with it: read-out: Stabilty. In kind it is ADME, Microsome.
The nature of series [2]: Metabolic stability in rat liver microsomes assessed as compound remaining at 1 uM incubated for 60 mins. Particulars: read-out: Stabilty. The class given is ADME, Microsome.
The nature of series [3]: Total clearance in Sprague-Dawley rat at 0.3 mg/kg, iv measured up to 24 hrs by LC-MS/MS analysis. The note with it: in vivo. The class given is ADME, organism-based.
Series [4] can be described thus: AUC in mouse at 1 mg/kg, po by LC/MS analysis. The class given is ADME, organism-based. On the set-up: dose 1 mg/kg. Particulars: in vivo.
Series [5] in a line: Apparent permeability across apical to basolateral side in human Caco2 cells incubated for 2 hrs by LC/MS/MS analysis. In kind it is ADME, cell-based. The note with it: Caco-2, read-out: permeability.
Series [6] is described as follows: Solubility of the compound measured after 4 hrs by LC analysis. The class given is physicochemical.
Series [7] can be described thus: Volume of distribution at steady state in Sprague-Dawley rat at 0.3 mg/kg, iv measured up to 24 hrs by LC-MS/MS analysis. In kind it is ADME, organism-based. The note with it: in vivo, read-out: Vdss.
Series [8] in a line: Half life in mouse at 1 mg/kg, po by LC/MS analysis. In kind it is ADME, organism-based. Particulars: in vivo.
Series [9] in a line: Mean residence time in Sprague-Dawley rat at 0.3 mg/kg, iv measured up to 24 hrs by LC-MS/MS analysis. The class given is ADME, organism-based. Particulars: in vivo.
A short description of series [10]: Oral bioavailability in mouse at 1 mg/kg by LC/MS analysis. In kind it is ADME, organism-based. The note with it: in vivo.

For the compound `COc1cc(-c2cnn3cc(OC)c(-c4cnn(C)c4)nc23)ccn1`, the figures for the remaining at 1 h, 1 µM in [1] and in [2] were 43% and 56%, respectively.
For `COc1cc(-c2cnn3cc(OC)c(N(C)C)nc23)ccn1`, the remaining at 1 h, 1 µM was 16% in series [1] and 3% in series [2].
In the same order, the values of `COc1cc(-c2cnn3cc(OC)c(-c4cc(C)no4)nc23)ccn1` are 31% and 62%.
`Cn1cc(-c2nc3c(-c4ccnc(OC5CC5)c4)cnn3cc2OCC(C)(C)O)cn1`: the remaining at 1 h, 1 µM in series [1] stood at 53%; in series [2], 81%.
For `COc1cnc2c(-c3ccnc(OC)c3)cnn2c1`, the remaining at 1 h, 1 µM in series [1] was found to be 2%; in [2], 10%.
In the case of `COc1cn2ncc(-c3ccnc(OC(C)(C)C)c3)c2nc1-c1cnn(C)c1`, the remaining at 1 h, 1 µM is 35% in series [1] and 61% in [2].
`COc1cc(-c2cnn3cc(OC)c(C4CCCC4)nc23)ccn1`: the remaining at 1 h, 1 µM in series [1] amounted to 32%; in [2] it was 7%.
`CNc1nc2c(-c3ccnc(OC)c3)cnn2cc1OC`: the remaining at 1 h, 1 µM in [1] turned out to be 63%; in [2], 74%.
For `COc1cc(-c2cnn3cc(OC)c([C@@H]4COC(C)(C)C4)nc23)ccn1`, the remaining at 1 h, 1 µM in series [1] worked out at 13%; in series [2] it was 30%.
For `COc1cc(-c2cnn3cc(OC)c(C(C)(C)O)nc23)ccn1`, the remaining at 1 h, 1 µM in series [1] is 66%; in series [2] it was 92%.
As to `Cn1cc(-c2nc3c(-c4ccnc(OC5CC5)c4)cnn3cc2OCCC(C)(C)O)cn1`, the clearance in [3] was 8.17 mL/min/kg. The same compound registered an AUC in series [4] of 2.3 µM·h. For the same compound, the Papp A→B at 2 h in series [5] worked out at 1.4 ×10⁻⁶ cm/s. The solubility entry in [6] is “Soluble”. In series [7], the Vd was 2.7 L/kg. In addition, the remaining at 1 h, 1 µM in series [1] amounted to 74%; in series [2] it was 84%. The half-life in series [8] is 4.6 h. In [9], this compound had an MRT of 5.5 h. In series [10], this compound showed a bioavailability of 48%.
Take `COc1cc(-c2cnn3cc(OC)c([C@H]4COC(C)(C)C4)nc23)ccn1`: the values for the remaining at 1 h, 1 µM in series [1] and in [2] were 21% and 30%, respectively.
For the compound `COc1cc(-c2cnn3cc(OC)c(C(C)C)nc23)ccn1`, the figures for the remaining at 1 h, 1 µM in series [1] and in series [2] were 40% and 14%, respectively.
On to `COc1cc(-c2cnn3cc(OC)c(C)nc23)ccn1`, for which the values for the remaining at 1 h, 1 µM in [1] and in [2] were 44% and 13%, respectively.
As for `COc1cc(-c2cnn3cc(OC)c(C4CCOC4)nc23)ccn1` (centres undefined), the remaining at 1 h, 1 µM in series [1] worked out at 29%; in series [2] it was 34%.
In the same order, the values of `Cn1cc(-c2nc3c(-c4ccnc(OC5CC5)c4)cnn3cc2OCCCC(C)(C)O)cn1` are 54% and 64%.
For the compound `COc1cn2ncc(-c3ccnc(OC(C)C)c3)c2nc1-c1cnn(C)c1`, the figures for the remaining at 1 h, 1 µM in series [1] and in [2] were 32% and 50%, respectively.
Consider `COc1cn2ncc(-c3ccnc(OC4CC4)c3)c2nc1-c1cnn(C)c1`, for which the remaining at 1 h, 1 µM in [1] was 47%; in [2] it was 32%.
